Measured values reported in patent US20240067632A1, “WEE1 Degrading Compounds and Uses Thereof” (Bristol-Myers Squibb Company, priority 2022, published 2024).

Tests used:
[1] = biological target: T1, WEE1 (Homo sapiens, UniProt P30291+Q96SW2); assay: WEE1-ePL degradation assay (LentiX-WEE1-ePL-GSPT1-ND cells, InCELL Hunter luminescence, 4 h); format: cell-based; settings: 293T-LentiX WEE1-ePL cells; for 293T-LentiX WEE1-ePL Degradation 4 hr (Ymin): lower limit of the fit (0 = luciferase inhibitor, Ymax = DMSO control); for DC50: read-out: 293T-LentiX WEE1-ePL Degradation 4 hr (EC50)
T1 construct: C-terminal ePL-tagged (DiscoverX, Fremont, CA) full-length WEE1 expression construct; expressed in transfected cells; host or cells: LentiX-HEK293T (Invitrogen), lentiviral transduction; co-expressing GSPT1-GN (G576N, lacking the first 158 amino acids)
Summary of the method: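 Degradation EC50 was fitted by a four-parameter logistic model, with the upper limit taken from DMSO wells. Luminescence was read with InCELL Hunter reagent after 30 min at room temperature, following a 4 h, 37° C exposure of 2500 cells/well. Cells were LentiX-HEK293T carrying ePL-tagged full-length WEE1, dosed in 10 points (3-fold) from 1 or 10 uM.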

[2] = test system: MKN45 cells; assay: MKN45 cell proliferation assay (Cell-Titer-Glo, 120 h); format: cell-based; settings: for EC50: Homo sapiens, MKN-45, 120 h, Cell-Titer-Glo, growth inhibition, read-out: MKN45 Cell Prolif. 120 hr (EC50); for MKN45 Cell Prolif. 120 hr (Ymin-Obs): minimal percent of DMSO control observed in the concentrations tested
Summary of the method: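 Cells seeded at 400/well onto pre-printed 10-point half-log dilutions (top 1 or 10 uM, 0.1% DMSO final), in triplicate, and grown 120 h at 37 C. Viability by Cell-Titer-Glo luminescence, blank-subtracted and normalised to DMSO; EC50 from four-parameter logistic fit, with observed minimal % of control recorded as Ymin-obs.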

| 293T-LentiX WEE1-ePL Degradation 4 hr (Ymin) [1] | DC50 [1] [nM] | EC50 [2] [nM] | Compound | MKN45 Cell Prolif. 120 hr (Ymin-Obs) [2] |
| --- | --- | --- | --- | --- |
| 31 | 1.58 | 2.77 | CC1(C)CC(=O)N(c2ccc3cc(CN4CC[C@H](Oc5ccc6c(c5)CN(C5CCC(=O)NC5=O)C6=O)C4)ccc3n2)C1 (stereo partly drawn) [3-(5-{[(3S)-1-{[2-(4,4-dimethyl-2-oxopyrrolidin-1-yl)quinolin-6-yl]methyl}pyrrolidin-3-yl]oxy}-1-oxo-2,3-dihydro-1H-isoindol-2-yl)piperidine-2,6-dione] | 8.145 |
| 31.5 | 8.84 | 7.41 | O=C1CCC(N2Cc3cc(O[C@H]4CCN(Cc5ccc6nc(C7(O)CCOCC7)ccc6c5)C4)ccc3C2=O)C(=O)N1 (stereo partly drawn) [3-(5-{[(3S)-1-{[2-(4-hydroxyoxan-4-yl)quinolin-6-yl]methyl}pyrrolidin-3-yl]oxy}-1-oxo-2,3-dihydro-1H-isoindol-2-yl)piperidine-2,6-dione] | 6.55 |
| 34.5 | 2.86 | 6.59 | O=C1CCC(N2Cc3cc(O[C@H]4CCN(Cc5ccc6nc(N7CCC(O)CC7)ccc6c5)C4)ccc3C2=O)C(=O)N1 (stereo partly drawn) [3-(5-{[(3S)-1-{[2-(4-hydroxypiperidin-1-yl)quinolin-6-yl]methyl}pyrrolidin-3-yl]oxy}-1-oxo-2,3-dihydro-1H-isoindol-2-yl)piperidine-2,6-dione] | 9.69 |
| 30.5 | 2.49 | 3.75 | COC1CCN(c2ccc3cc(CN4CC[C@H](Oc5ccc6c(c5)CN(C5CCC(=O)NC5=O)C6=O)C4)ccc3n2)CC1 (stereo partly drawn) [3-(5-{[(3S)-1-{[2-(4-methoxypiperidin-1-yl)quinolin-6-yl]methyl}pyrrolidin-3-yl]oxy}-1-oxo-2,3-dihydro-1H-isoindol-2-yl)piperidine-2,6-dione] | 9.39 |
| 32 | 1.99 | 4.03 | CC1(c2ccc3cc(CN4CC[C@H](Oc5ccc6c(c5)CN(C5CCC(=O)NC5=O)C6=O)C4)ccc3n2)CCOCC1 (stereo partly drawn) [3-(5-{[(3S)-1-{[2-(4-methyloxan-4-yl)quinolin-6-yl]methyl}pyrrolidin-3-yl]oxy}-1-oxo-2,3-dihydro-1H-isoindol-2-yl)piperidine-2,6-dione] | 10.29 |
| 33.5 | 6.77 | 20 | CN1CCN(c2ccc3cc(CN4CC[C@H](Oc5ccc6c(c5)CN(C5CCC(=O)NC5=O)C6=O)C4)ccc3n2)CC1 (stereo partly drawn) [3-(5-{[(3S)-1-{[2-(4-methylpiperazin-1-yl)quinolin-6-yl]methyl}pyrrolidin-3-yl]oxy}-1-oxo-2,3-dihydro-1H-isoindol-2-yl)piperidine-2,6-dione] | 13.365 |
| 37 | 3.01 | 6.71 | O=C1CCC(N2Cc3cc(O[C@H]4CCN(Cc5ccc6nc(N7CCC7)ccc6c5)C4)ccc3C2=O)C(=O)N1 (stereo partly drawn) [3-(5-{[(3S)-1-{[2-(azetidin-1-yl)quinolin-6-yl]methyl}pyrrolidin-3-yl]oxy}-1-oxo-2,3-dihydro-1H-isoindol-2-yl)piperidine-2,6-dione] | 10.91 |
| 29.42 | 2.96 | 7.17 | O=C1CCC(N2Cc3cc(O[C@H]4CCN(Cc5ccc6nc(C(F)F)ccc6c5)C4)ccc3C2=O)C(=O)N1 (stereo partly drawn) [3-(5-{[(3S)-1-{[2-(difluoromethyl)quinolin-6-yl]methyl}pyrrolidin-3-yl]oxy}-1-oxo-2,3-dihydro-1H-isoindol-2-yl)piperidine-2,6-dione] | 9.875 |
| 26.59 | 2.71 | 20 | CN(C)c1ccc2cc(CN3CC[C@H](Oc4ccc5c(c4)CN(C4CCC(=O)NC4=O)C5=O)C3)ccc2n1 (stereo partly drawn) [3-(5-{[(3S)-1-{[2-(dimethylamino)quinolin-6-yl]methyl}pyrrolidin-3-yl]oxy}-1-oxo-2,3-dihydro-1H-isoindol-2-yl)piperidine-2,6-dione] | 12.34 |
| 26.21 | 1.62 | 11.8 | O=C1CCC(N2Cc3cc(O[C@H]4CCN(Cc5ccc6nc(CF)ccc6c5)C4)ccc3C2=O)C(=O)N1 (stereo partly drawn) [3-(5-{[(3S)-1-{[2-(fluoromethyl)quinolin-6-yl]methyl}pyrrolidin-3-yl]oxy}-1-oxo-2,3-dihydro-1H-isoindol-2-yl)piperidine-2,6-dione] | 10.025 |
| 31.475 | 9.39 | 54.4 | O=C1CCC(N2Cc3cc(O[C@H]4CCN(Cc5ccc6nc(CO)ccc6c5)C4)ccc3C2=O)C(=O)N1 (stereo partly drawn) [3-(5-{[(3S)-1-{[2-(hydroxymethyl)quinolin-6-yl]methyl}pyrrolidin-3-yl]oxy}-1-oxo-2,3-dihydro-1H-isoindol-2-yl)piperidine-2,6-dione] | 11.84 |
| 32 | 47.5 | 78.5 | COCc1ncc2cc(CN3CC[C@H](Oc4ccc5c(c4)CN(C4CCC(=O)NC4=O)C5=O)C3)ccc2n1 (stereo partly drawn) [3-(5-{[(3S)-1-{[2-(methoxymethyl)quinazolin-6-yl]methyl}pyrrolidin-3-yl]oxy}-1-oxo-2,3-dihydro-1H-isoindol-2-yl)piperidine-2,6-dione] | 9.73 |
| 30.5 | 5.55 | 20.5 | COCc1ccc2cc(CN3CC[C@H](Oc4ccc5c(c4)CN(C4CCC(=O)NC4=O)C5=O)C3)ccc2n1 (stereo partly drawn) [3-(5-{[(3S)-1-{[2-(methoxymethyl)quinolin-6-yl]methyl}pyrrolidin-3-yl]oxy}-1-oxo-2,3-dihydro-1H-isoindol-2-yl)piperidine-2,6-dione] | 8.38 |
| 41 | 44.8 | 234 | CNc1ncc2cc(CN3CC[C@H](Oc4ccc5c(c4)CN(C4CCC(=O)NC4=O)C5=O)C3)ccc2n1 (stereo partly drawn) [3-(5-{[(3S)-1-{[2-(methylamino)quinazolin-6-yl]methyl}pyrrolidin-3-yl]oxy}-1-oxo-2,3-dihydro-1H-isoindol-2-yl)piperidine-2,6-dione] | 22.48 |
| 31.06 | 7.21 | 21.8 | CNc1ccc2cc(CN3CC[C@H](Oc4ccc5c(c4)CN(C4CCC(=O)NC4=O)C5=O)C3)ccc2n1 (stereo partly drawn) [3-(5-{[(3S)-1-{[2-(methylamino)quinolin-6-yl]methyl}pyrrolidin-3-yl]oxy}-1-oxo-2,3-dihydro-1H-isoindol-2-yl)piperidine-2,6-dione] | 9.31 |
| 31.33 | 7.2 | 16.1 | O=C1CCC(N2Cc3cc(O[C@H]4CCN(Cc5ccc6nc(N7CCOCC7)ncc6c5)C4)ccc3C2=O)C(=O)N1 (stereo partly drawn) [3-(5-{[(3S)-1-{[2-(morpholin-4-yl)quinazolin-6-yl]methyl}pyrrolidin-3-yl]oxy}-1-oxo-2,3-dihydro-1H-isoindol-2-yl)piperidine-2,6-dione] | 9.637 |
